These results are taken from patent publication US11470828B2, “Rodent model of mood disorders” (REGENERON PHARMACEUTICALS, INC., priority 2019, dated 2022).

Where “and” joins values, the source holds several entries; their conditions need not be identical. Identical values can stand only once. Like-named read-outs stand apart in the source and are kept apart here.

The experiment has as its system GPR156^E533D/E533D mice. The settings on record: for Effect on impaired swim phenotype (ability to perform 6-minute swim test): GPR156^E533D/E533D mice, Fluoxetine 10 mg/kg i.p. daily for 9 weeks. The method, then:
Mice were placed in a 5 liter clear plastic beaker (25×18 cm diameter) filled with 4 liters of 23-25° C. tap water to ensure mice cannot touch the bottom of the flask even with their tail. Four animals were recorded simultaneously using an ANY-maze™ video-tracking system (Stoelting Co.). Data were recorded for 6 minutes. Flask were separated by 3 sided white plastic partitions (40 cm high×25 cm wide). Swim test was recorded for 6 minutes. Recordings were set up to start automatically if there was motion in the flask so that recorded times are specific for each individual mouse.
The 6 minutes recording was broken into three time segments (0-100 seconds, 101-200 second and last […]) to get a better sampling of behaviors across time.
Main data points analyzed for the FST were swim time, time mobile, time immobile, speed, distance traveled, rearing in the swim zone, mobile episodes and immobile episodes. Immobility is defined as 60% of total body mass being immobile for 2 seconds. This parameter allows for small movements of hind legs and feet to maintain balance and or to tread water without be considered actively swimming.
Mice were tested for a 6 minute forced swim test weekly before and after daily treatment with intraperitoneal injection of Fluoxetine 10 mg/kg for […]. Total time of swim test seconds) before and after daily treatment with Fluoxetine was recorded. […] Data were expressed as mean±SEM for each animal group.
To test whether Fluoxetine could reverse the impaired swim test phenotype, GPR156^hum/hum and GPR156^E533D/E533D mice were treated with Fluoxetine 10 mg/kg (i.p) daily for 6 days/week for 9 weeks. […] Therefore, mice were subjected to a swim test (baseline) and animals able to perform the 6 minutes swim test were excluded from the study. The remaining mice were then split into 2 groups, treated and untreated with Fluoxetine.
For this study, mice were subjected to a swim test (baseline) and animals able to perform the 6 minutes swim test were excluded from the study.

With `CNCCC(Oc1ccc(C(F)(F)F)cc1)c1ccccc1` (stereo not drawn) [Fluoxetine], the “Effect on impaired swim phenotype (ability to perform 6-minute swim test)” value is on record as “improves the impaired swim phenotype”. Moreover, the “Percentage of mice achieving the swim test” value (GPR156^E533D/E533D mice (0/13 at baseline), Fluoxetine 10 mg/kg i.p. daily 6 days/week, after 9 weeks, males and females combined) is 53% and 61%. For the same molecule, for the setting “listed as fluoxetine”, the “Effect on impaired swim phenotype (ability to perform 6-minute swim test)” value was “improved on their ability to perform the swim test”. For the setting “female mice homozygous for E533D, Fluoxetine 10 mg/kg i.p. daily, after 4 weeks (5 out of 10)”, the “Percentage of females able to successfully perform the 6 minutes swim test” value was 50%. Besides, the “Percentage of GPR156^E533D/E533D mice that achieved the test” value (following 4-9 weeks of treatment with Fluoxetine 10 mg/kg, i.p., daily, none able prior to treatment) is recorded as “Fluoxetine (10 mg/kg, i.p., daily), 53%”. In addition, the “Percentage of males able to successfully perform the 6 minutes swim test” value (male mice homozygous for E533D, Fluoxetine 10 mg/kg i.p. daily, after 4 weeks (5 out of 8)) was 62.5%.
